Values after ≈ are worked out from the molar mass of the structure shown. Values joined by “and” are separate entries in the source; they are usually repeats but may differ in a detail not shown here. Equal values may be shown once. “Also recorded” adds a separate entry of the source. Marks after values point to notes of the source that are not given here.

Data set [1] in a line: Moisture sorption/desorption. Type of data set: physicochemical. As for the experimental part: Moisture sorption/desorption data were collected on a VTI SGA-100 moisture balance system. For sorption isotherms, a sorption range of 5 to 95% relative humidity (RH) and a desorption range of 95 to 5% RH in 10% RH increments was used for analysis. The sample was not dried prior to analysis. Equilibrium criteria used for analysis were less than 0.0100 weight percent change in 5 minutes with a maximum equilibration time of 3 hours if the weight criterion was not met. Data were not corrected for the initial moisture content of the samples.

Data set [2] in a line: Desolvation by heating. Type of data set: physicochemical. The settings on record: about 150° C. for about five minutes.
Data set [3] in a line: Interconversion slurry experiments.
Description: Interconversion experiments were carried out by making slurries containing two forms in a saturated solvent. The slurries were agitated for approximately 7-20 days at ambient temperature. The insoluble solids were recovered by filtration and analyzed using XRPD.
Data set [4] is described as follows: Intrinsic dissolution (Woods apparatus). The class given is physicochemical. The settings on record: for dissolution rates (estimated) / Final Form of undissolved solids after intrinsic dissolution (XRPD) / Intrinsic Dissolution #2 (rate): HCl buffer pH 1.8, 1% sodium lauryl sulfate; for Final Form of undissolved solids after intrinsic dissolution (XRPD) / Intrinsic Dissolution #1 (rate) / Intrinsic Dissolution #2 (rate): 37° C.; for Average Intrinsic Dissolution Rate: average of experiments #1 and #2; for Intrinsic Dissolution #1 (rate): experiment #1, 900 mL HCl buffer pH 1.8, 1% sodium lauryl sulfate; for Intrinsic Dissolution #1 (rate) / Intrinsic Dissolution #2 (rate): 50 rpm; for Intrinsic Dissolution #2 (rate): experiment #2. As for the experimental part: Dissolution experiments were carried out in a VanKel VK6010-8 dissolution apparatus equipped with a VK650A heater/circulator. An intrinsic dissolution apparatus (Woods apparatus) was used. Samples were compressed at 1.5 metric tons (1000 psi) for 1 min using the Woods apparatus in a hydraulic press, giving a sample surface of 0.50 cm^2. […] The medium was degassed by vacuum filtration through a 0.22-μm nylon filter disk and maintained at 37° C. The apparatus was rotated at 50 rpm for each experiment. Aliquots were filtered immediately using 0.2-μm nylon syringe filters. In some cases, the undissolved solids were recovered and analyzed by X-ray powder diffraction (XRPD).
(§1) Diffracted radiation was detected by a NaI scintillation detector.

Data set [5] is described as follows: Temperature/relative humidity stress storage. Type of data set: physicochemical. The settings on record: about 85 days; room temperature/0% RH and 40° C./93% RH.
A short description of data set [6]: Compression and grinding, form check by XRPD. The class given is physicochemical. The settings on record: compressed into disks in Woods apparatus, 2 metric tons, ground gently. The method, then:
as §1
Approximately 200 mg each of Forms A and B were compressed into disks in the Woods apparatus using 2 metric tons of pressure. The samples were subsequently scraped out, ground gently, and analyzed by XRPD. […] (See Table 7).

Data set [7] can be described thus: Equilibrium solubility in dissolution medium. The settings on record: for Final Form of solids remaining from solubility experiment (XRPD) / Concentration: HCl buffer pH 1.8, 1% sodium lauryl sulfate; for Final Form of solids remaining from solubility experiment (XRPD): final time point.
Description: A solid sample of 400-450 mg was stirred in 50 mL of dissolution medium (HCl buffer, pH 1.8, with 1% sodium lauryl sulfate) using a mechanical stir rod. Aliquots were filtered using 0.2-μm nylon syringe filters and immediately diluted 1 mL→50 mL, then 5 mL→25 mL with dissolution medium in Class A glassware, a final dilution factor of 250.
Dissolution and solubility samples solutions were analyzed by a Beckman DU 640 single-beam spectrophotometer. A 1.000-cm quartz cuvette and an analysis wavelength of 228.40 nm were utilized. The detector was zeroed with a cuvette filled with dissolution medium.
XRPD analyses were carried out on a Shimadzu XRD-6000 X-ray powder diffractometer using Cu Kα radiation. The instrument is equipped with a fine focus X-ray tube. The tube power and amperage were set at 40 kV and 40 mA, respectively. The divergence and scattering slits were set at 1° and the receiving slit was set at 0.15 mm. Diffracted radiation was detected by a NaI scintillation detector. A theta-two theta continuous scan at 3°/min (0.4 sec/0.02° step) from 2.5 to 40°2θ was used. A silicon standard was analyzed each day to check the instrument alignment. Samples were packed in an aluminum holder with silicon insert.
Setting [8] is: from 5 to 95% relative humidity.

Regarding `Nc1cccc2c1CN(C1CCC(=O)NC1=O)C2=O` (stereo not shown) [Form D, 3-(4-amino-1-oxo-1,3 dihydro-isoindol-2-yl)-piperidine-2,6-dione], the “hygroscopicity (summary)” value in data set [1] is listed as “either weakly or not hygroscopic”. In addition, the “weight gain on moisture sorption” value in data set [1] (setting [8]) is recorded as “does not exhibit a significant weight gain”. The “form after heating (desolvation)” value in data set [2] was “will typically convert to Form A”. Further, the “interconversion / stability in solvent system” value (shortened to “interconversion / stability”) in data set [3] (THF solvent system) is “capable of converting to Form A”.

One may read the Solubility as the dissolved amount per volume that the medium holds. For the molecule `Nc1cccc2c1CN(C1CCC(=O)NC1=O)C2=O` (single isomer, unassigned) [Form B, 3-(4-amino-1-oxo-1,3 dihydro-isoindol-2-yl)-piperidine-2,6-dione], the “Cumulative Amount Dissolved per Unit Area” value in data set [4] (Experiment #1, 5 min) is 10.80^b mg/cm2; in data set [4] (Experiment #1, 10 min) it was 6.85 mg/cm2; in data set [4] (Experiment #1, 20 min), 10.25 mg/cm2; in data set [4] (Experiment #1, 30 min) it was 14.35 mg/cm2; in data set [4] (Experiment #1, 45 min) it was 20.57 mg/cm2; in data set [4] (Experiment #1, 60 min), 25.70 mg/cm2. Moreover, the “Cumulative Amount Dissolved per Unit Area” value in data set [4] (Experiment #1, 90 min) is given as 34.34 mg/cm2; in data set [4] (Experiment #2, 5 min), 5.04 mg/cm2; in data set [4] (Experiment #2, 10 min), 6.12 mg/cm2; in data set [4] (Experiment #2, 20 min) it was 7.73 mg/cm2; in data set [4] (Experiment #2, 30 min) it was 12.72 mg/cm2; in data set [4] (Experiment #2, 45 min), 17.33 mg/cm2. Further, the “Cumulative Amount Dissolved per Unit Area” value in data set [4] (Experiment #2, 60 min) was 21.93 mg/cm2; in data set [4] (Experiment #2, 90 min) it was 31.64 mg/cm2; in data set [4] (Experiment #2, 120 min) it was 41.31 mg/cm2; in data set [4] (Experiment #2, 150 min), 49.54 mg/cm2. Further, the dissolution rates (estimated) in data set [4] was 0.34 mg/cm²/min. In addition, in data set [4], the “Final Form of undissolved solids after intrinsic dissolution (XRPD)” value is listed as “did not change”. In addition, the “Average Intrinsic Dissolution Rate” value in data set [4] is reported as 0.34 mg per cm^2 per minute. The “Intrinsic Dissolution #1 (rate)” value in data set [4] is on record as 0.35 mg per cm^2 per minute. Further, the “Intrinsic Dissolution #2 (rate)” value in data set [4] is listed as 0.32 mg per cm^2 per minute. Also, in data set [1] (setting [8]), the “weight gain on moisture sorption” value was “does not exhibit a significant weight gain”. Besides, the “form after stress storage” value in data set [5] is “does not convert to a different form”. The “Final Form after pressing (compression and grinding, XRPD)” value in data set [6] is “does not cause a form change”. Further, the “interconversion / stability” value is reported as “typically converts to Form A” in data set [3] (THF solvent system), “typically converts to Form C” in data set [3] (acetone solvent system) and “converts to other forms” in data set [3] (anhydrous solvent systems). In addition, in data set [3] (in the presence of water), the interconversion result is given as “can convert to Form E”. For the same molecule, the “Final Form of solids remaining from solubility experiment (XRPD)” value in data set [7] is reported as “Form B”. Also, the Solubility in data set [7] (HCl buffer, pH 1.8, with 1% sodium lauryl sulfate, 25° C., estimated) is 5800 µg/mL (≈ 22.4 mM). In data set [7] (final three time points (180, 420, 650 min)), the Concentration stabilized fell in the range of 5600 to 5700 µg/mL. The “stability in water (suggested by remaining solids)” value in data set [7] (slurry in dissolution medium up to 650 min) is recorded as “good stability in water”. The Concentration was 1630 µg/mL in data set [7] (time point 7 min, 25° C.); 2140 µg/mL in data set [7] (time point 15 min, 25° C.); 2330 µg/mL in data set [7] (time point 30 min, 25° C.); 2940 µg/mL in data set [7] (time point 60 min, 25° C.); 3300 µg/mL and 3340 µg/mL in data set [7] (time point 90 min, 25° C.); 5670 µg/mL in data set [7] (time point 180 min, 25° C.). The Concentration in data set [7] (time point 420 min, 25° C.) stood at 5760 µg/mL; in data set [7] (time point 650 min, 25° C.), 5610 µg/mL.

For `Nc1cccc2c1CN(C1CCC(=O)NC1=O)C2=O` (stereo not shown) [Form C, 3-(4-amino-1-oxo-1,3 dihydro-isoindol-2-yl)-piperidine-2,6-dione], the “hygroscopicity (summary)” value in data set [1] was “not hygroscopic below about 85% RH”. Moreover, in data set [1] (at 95% relative humidity), the weight loss entry was “about 6.03%”. For the same molecule, the “weight gain on moisture sorption” value in data set [1] (from 5 to 85% relative humidity) is listed as “does not exhibit a significant weight gain”. Also, the “form after heating (desolvation)” value in data set [2] was “will typically convert to Form A”. Also, the “interconversion / stability” value in data set [3] (THF solvent system) is “typically converts to Form A”; in data set [3] (acetone solvent system), “most stable form”; in data set [3] (aqueous solvent systems) it was “typically converts to Form E”.

Regarding `Nc1cccc2c1CN(C1CCC(=O)NC1=O)C2=O` (stereo not shown) [Form H, 3-(4-amino-1-oxo-1,3 dihydro-isoindol-2-yl)-piperidine-2,6-dione], the interconversion result in data set [3] (slurried in water with either Forms A or B, about 14 days) is given as “can convert to Form E”.

`Nc1cccc2c1CN(C1CCC(=O)NC1=O)C2=O` (single isomer, unassigned) [Form A, 3-(4-amino-1-oxo-1,3 dihydro-isoindol-2-yl)-piperidine-2,6-dione]: the “Cumulative Amount Dissolved per Unit Area” value in data set [4] (Experiment #1, 5 min) is 5.76 mg/cm2; in data set [4] (Experiment #1, 10 min), 7.73 mg/cm2; in data set [4] (Experiment #1, 20 min) it was 11.31 mg/cm2; in data set [4] (Experiment #1, 30 min), 15.59 mg/cm2; in data set [4] (Experiment #1, 45 min), 21.98 mg/cm2; in data set [4] (Experiment #1, 60 min), 27.11 mg/cm2. In addition, the “Cumulative Amount Dissolved per Unit Area” value in data set [4] (Experiment #1, 90 min) came to 34.17 mg/cm2; in data set [4] (Experiment #2, 5 min), 4.50 mg/cm2; in data set [4] (Experiment #2, 10 min), 5.22 mg/cm2; in data set [4] (Experiment #2, 20 min) it was 7.54 mg/cm2; in data set [4] (Experiment #2, 30 min), 11.46 mg/cm2; in data set [4] (Experiment #2, 45 min), 15.01 mg/cm2. Further, the “Cumulative Amount Dissolved per Unit Area” value in data set [4] (Experiment #2, 60 min) is on record as 18.38 mg/cm2; in data set [4] (Experiment #2, 90 min), 24.38 mg/cm2; in data set [4] (Experiment #2, 120 min) it was 30.35 mg/cm2; in data set [4] (Experiment #2, 150 min), 35.26 mg/cm2. In addition, the dissolution rates (estimated) in data set [4] was 0.35 mg/cm²/min. In data set [4], the “Final Form of undissolved solids after intrinsic dissolution (XRPD)” value is reported as “did not change; also recorded: does not indicate a form change”. Also, the “Average Intrinsic Dissolution Rate” value in data set [4] is 0.29^a mg per cm^2 per minute. Also, the “Intrinsic Dissolution #1 (rate)” value in data set [4] is given as 0.35 mg per cm^2 per minute. Besides, the “Intrinsic Dissolution #2 (rate)” value in data set [4] was 0.22 mg per cm^2 per minute and 0.22^a mg per cm^2 per minute. The “true intrinsic dissolution rate (believed)” value in data set [4] (judged from experiment #1, since #2 disk surface may have converted to Form E) is reported as roughly 0.35 mg per cm^2 per minute. In addition, the “hygroscopicity (summary)” value in data set [1] is given as “weakly or not hygroscopic”. The “weight lost from start to finish” value in data set [1] (at 5% relative humidity after drying from 95% back down to 5%) is listed as “about 0.003 % by weight”. The “weight gain on moisture sorption” value in data set [1] (setting [8]) is given as “does not exhibit a significant weight gain”. Further, the “form after stress storage” value in data set [5] is on record as “typically does not convert to a different form”. Further, the “Final Form after pressing (compression and grinding, XRPD)” value in data set [6] is “does not cause a form change”. Moreover, the “thermodynamic stability among anhydrous polymorphs (summary)” value in data set [3] was “most thermodynamically stable anhydrous polymorph”. The “interconversion / stability” value was “can convert to Form C” in data set [3] (acetone solvent system), “tends to be stable” in data set [3] (anhydrous solvent systems) and “can convert to Form B” in data set [3] (aqueous solvent systems). Also, the interconversion entry in data set [3] (water systems, in the presence of Form E) was “tends to convert to Form E”. For the same molecule, the “Final Form of solids remaining from solubility experiment (XRPD)” value in data set [7] is “unstable in the medium, converting to Form E”. The Concentration in data set [7] (time point 7 min, 25° C.) was 6000 µg/mL; in data set [7] (time point 15 min, 25° C.), 6110 µg/mL; in data set [7] (time point 30 min, 25° C.) it was 6200 µg/mL and 6160 µg/mL; in data set [7] (time point 60 min, 25° C.) it was 6100 µg/mL; in data set [7] (time point 90 min, 25° C.), 5460 µg/mL; in data set [7] (time point 150 min, 25° C.) it was 4700 µg/mL and 4730 µg/mL.

These data come from US11655232B2 (Celgene Corporation, priority 2003, dated 2023).
